Reference: paper PMC5540273, “Progress towards a public chemogenomic set for protein kinases and a call for contributions” (PLoS ONE, 2017)

What was measured:
Test in all cases: KINOMEscan competition binding
BRSK2 = target: T1, BRSK2 (Homo sapiens, UniProt Q8IWQ3); conditions: read-out: %Inh BRSK2
T1 sequence (Q8IWQ3 1-736): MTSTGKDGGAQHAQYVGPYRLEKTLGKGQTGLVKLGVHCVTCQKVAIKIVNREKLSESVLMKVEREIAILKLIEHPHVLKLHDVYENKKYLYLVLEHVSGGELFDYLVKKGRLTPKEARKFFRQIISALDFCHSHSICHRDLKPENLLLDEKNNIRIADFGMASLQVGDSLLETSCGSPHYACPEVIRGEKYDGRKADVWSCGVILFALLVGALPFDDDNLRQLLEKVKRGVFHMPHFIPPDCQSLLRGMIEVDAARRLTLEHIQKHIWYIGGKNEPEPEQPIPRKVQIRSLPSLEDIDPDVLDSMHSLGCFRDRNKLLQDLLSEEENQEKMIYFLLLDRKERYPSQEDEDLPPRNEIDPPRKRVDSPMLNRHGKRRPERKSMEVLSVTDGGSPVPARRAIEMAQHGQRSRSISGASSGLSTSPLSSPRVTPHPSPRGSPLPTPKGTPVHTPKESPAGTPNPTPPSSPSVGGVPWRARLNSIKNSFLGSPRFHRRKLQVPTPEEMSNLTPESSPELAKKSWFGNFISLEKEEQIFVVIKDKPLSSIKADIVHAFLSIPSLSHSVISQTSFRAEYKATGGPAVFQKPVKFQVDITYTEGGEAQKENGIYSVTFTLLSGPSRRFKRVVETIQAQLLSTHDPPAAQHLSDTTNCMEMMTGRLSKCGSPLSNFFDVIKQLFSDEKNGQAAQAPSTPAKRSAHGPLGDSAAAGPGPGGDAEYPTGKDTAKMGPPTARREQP

DYRK1A = DYRK1A (Homo sapiens, UniProt Q13627); conditions: read-out: %Inh DYRK1A
AURKA = target: T2, AURKA (Homo sapiens, UniProt O14965); conditions: read-out: %Inh AURKA
T2 sequence (O14965 1-403): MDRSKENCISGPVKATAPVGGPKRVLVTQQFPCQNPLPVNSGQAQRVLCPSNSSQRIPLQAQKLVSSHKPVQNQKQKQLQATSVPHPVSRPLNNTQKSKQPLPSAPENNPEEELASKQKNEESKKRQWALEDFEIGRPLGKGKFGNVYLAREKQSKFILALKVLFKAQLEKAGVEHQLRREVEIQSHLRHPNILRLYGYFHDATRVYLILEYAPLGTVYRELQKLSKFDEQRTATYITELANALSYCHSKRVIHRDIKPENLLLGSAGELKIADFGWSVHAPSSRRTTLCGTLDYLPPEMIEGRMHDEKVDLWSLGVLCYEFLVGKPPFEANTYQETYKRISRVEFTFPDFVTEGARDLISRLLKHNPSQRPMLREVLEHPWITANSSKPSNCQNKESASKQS

MAK = target: T3, MAK (Homo sapiens, UniProt P20794); conditions: read-out: %Inh MAK
T3 sequence (P20794 1-623): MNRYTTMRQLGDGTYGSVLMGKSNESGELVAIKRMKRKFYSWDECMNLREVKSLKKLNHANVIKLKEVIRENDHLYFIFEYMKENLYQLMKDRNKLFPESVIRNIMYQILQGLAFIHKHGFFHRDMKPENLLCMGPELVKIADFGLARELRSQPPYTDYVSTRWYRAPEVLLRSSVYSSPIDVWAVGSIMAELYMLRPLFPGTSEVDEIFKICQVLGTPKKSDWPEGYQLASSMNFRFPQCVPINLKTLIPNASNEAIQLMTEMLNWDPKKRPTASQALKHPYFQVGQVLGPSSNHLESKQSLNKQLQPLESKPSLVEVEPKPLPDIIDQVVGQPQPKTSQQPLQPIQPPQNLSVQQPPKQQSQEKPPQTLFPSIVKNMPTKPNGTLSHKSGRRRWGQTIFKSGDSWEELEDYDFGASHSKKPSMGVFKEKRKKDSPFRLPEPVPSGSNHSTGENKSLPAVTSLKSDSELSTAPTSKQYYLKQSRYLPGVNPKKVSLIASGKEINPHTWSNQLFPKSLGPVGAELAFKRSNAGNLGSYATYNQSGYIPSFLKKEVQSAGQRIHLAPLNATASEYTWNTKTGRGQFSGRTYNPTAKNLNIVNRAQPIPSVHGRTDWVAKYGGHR

CASK = target: T4, CASK (Homo sapiens, UniProt O14936); conditions: read-out: %Inh CASK
T4 sequence (O14936 1-926): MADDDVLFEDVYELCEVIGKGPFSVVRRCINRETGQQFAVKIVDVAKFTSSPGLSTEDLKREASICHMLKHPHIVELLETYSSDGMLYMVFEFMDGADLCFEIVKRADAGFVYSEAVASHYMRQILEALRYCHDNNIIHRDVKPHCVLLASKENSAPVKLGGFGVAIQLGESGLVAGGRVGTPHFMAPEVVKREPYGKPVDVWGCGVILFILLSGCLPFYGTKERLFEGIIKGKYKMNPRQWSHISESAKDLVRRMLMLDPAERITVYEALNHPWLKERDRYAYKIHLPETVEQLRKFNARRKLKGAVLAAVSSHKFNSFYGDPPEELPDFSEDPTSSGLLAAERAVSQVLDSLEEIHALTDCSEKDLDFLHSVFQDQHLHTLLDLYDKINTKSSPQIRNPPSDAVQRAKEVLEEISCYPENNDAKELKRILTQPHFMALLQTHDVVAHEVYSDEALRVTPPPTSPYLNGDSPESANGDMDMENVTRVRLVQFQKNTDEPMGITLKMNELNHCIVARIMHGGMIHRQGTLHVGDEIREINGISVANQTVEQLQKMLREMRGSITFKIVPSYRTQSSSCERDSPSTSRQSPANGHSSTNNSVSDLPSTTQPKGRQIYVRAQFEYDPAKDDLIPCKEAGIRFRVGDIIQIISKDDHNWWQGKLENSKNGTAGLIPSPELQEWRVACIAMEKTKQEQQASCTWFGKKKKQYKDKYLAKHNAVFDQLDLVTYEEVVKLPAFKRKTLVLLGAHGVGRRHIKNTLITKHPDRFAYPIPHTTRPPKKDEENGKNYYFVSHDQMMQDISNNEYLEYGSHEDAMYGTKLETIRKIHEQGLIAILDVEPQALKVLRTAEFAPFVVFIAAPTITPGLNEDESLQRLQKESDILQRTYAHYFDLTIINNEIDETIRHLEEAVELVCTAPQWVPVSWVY

SMILES | inhibition at 1 µM (BRSK2) | inhibition at 1 µM (DYRK1A) | inhibition at 1 µM (AURKA) | inhibition at 1 µM (MAK) | inhibition at 1 µM (CASK)
Cn1cc(-c2cnc(N)c3c(-c4ccc5c(c4)CCN5C(=O)Cc4ccccc4)csc23)cn1 [UNC10225012A] | 7% | 0% | 24% | 0% | 23%
CS(=O)(=O)Cc1ccc(Nc2nccc(-c3c(-c4cccc(NC(=O)C5CCCCC5)c4)nn4ncccc34)n2)cc1 [UNC10225159A] | 0% | 26% | 9% | 0% | 34%
Cc1ccc(NC(=O)Nc2cccc(C(F)(F)F)c2)cc1 [UNC10225187A] | 0% | 0% | 0% | 0% | 15%
COc1cccc(OC)c1C(=O)Nc1cccc(-c2nn3ccccc3c2-c2ccnc(Nc3cccc(F)c3)n2)c1 [UNC10225310A] | 16% | 0% | 32% | 14% | 15%
O=c1cc(N2CCOCC2)nc2n(Cc3cccc(Cl)c3Cl)c(C3CC3)nn12 [UNC10225469A] | 0% | 2% | 0% | 0% | 26%
